Data from the NIST ThermoML archive (doi:10.1016/j.fluid.2018.10.006).

Conditions: Fluid (supercritical or subcritical phases), Coaxial cylinder method

CCCCCC [hexane]
Conditions	thermal conductivity [W/m/K]
508.92 K, 3088 kPa	0.1061
508.92 K, 3089 kPa	0.1087
508.92 K, 3090 kPa	0.1096
508.92 K, 3091 kPa	0.11
508.92 K, 3092 kPa	0.1093
508.92 K, 3093 kPa	0.1071
508.92 K, 3094 kPa	0.1049
508.92 K, 3095 kPa	0.1028
508.92 K, 3096 kPa	0.101
508.92 K, 3097 kPa	0.09872
508.92 K, 3098 kPa	0.0967
508.92 K, 3099 kPa	0.0947
508.92 K, 3100 kPa	0.09356
508.92 K, 3101 kPa	0.09223
508.92 K, 3102 kPa	0.09134
508.92 K, 3103 kPa	0.09045
508.92 K, 3104 kPa	0.08916
508.92 K, 3105 kPa	0.08837
508.92 K, 3106 kPa	0.08751
508.92 K, 3107 kPa	0.08708
508.92 K, 3108 kPa	0.08666
508.92 K, 3109 kPa	0.08604
508.92 K, 3110 kPa	0.08542
508.92 K, 3111 kPa	0.08502
508.92 K, 3112 kPa	0.08462
508.92 K, 3113 kPa	0.08398
508.92 K, 3114 kPa	0.08318
508.92 K, 3115 kPa	0.08318
508.92 K, 3120 kPa	0.08124
508.92 K, 3125 kPa	0.07976
508.92 K, 3130 kPa	0.07868
508.92 K, 3135 kPa	0.07761
508.92 K, 3140 kPa	0.07664
508.92 K, 3145 kPa	0.07595
508.92 K, 3150 kPa	0.07561
508.92 K, 3155 kPa	0.07461
508.92 K, 3159 kPa	0.07461
508.92 K, 3160 kPa	0.07429
508.92 K, 3165 kPa	0.07396
508.92 K, 3170 kPa	0.07364
508.92 K, 3175 kPa	0.07309
508.92 K, 3180 kPa	0.07309
508.92 K, 3185 kPa	0.07278
508.92 K, 3190 kPa	0.07248
508.92 K, 3195 kPa	0.07217
508.92 K, 3200 kPa	0.07227
508.92 K, 3205 kPa	0.07189
508.92 K, 3215 kPa	0.07157
508.92 K, 3220 kPa	0.07128
508.92 K, 3225 kPa	0.07128
508.92 K, 3230 kPa	0.07107
508.92 K, 3235 kPa	0.07101
508.92 K, 3240 kPa	0.07092
508.92 K, 3245 kPa	0.07081
508.92 K, 3250 kPa	0.07098
508.92 K, 3255 kPa	0.07098
508.92 K, 3260 kPa	0.07098
508.92 K, 3265 kPa	0.07069
508.92 K, 3270 kPa	0.07069
508.92 K, 3275 kPa	0.07069
508.92 K, 3280 kPa	0.07069
508.92 K, 3285 kPa	0.07069
508.92 K, 3290 kPa	0.0704
508.92 K, 3295 kPa	0.0704
508.92 K, 3300 kPa	0.0704
508.92 K, 3310 kPa	0.0704
508.92 K, 3320 kPa	0.07069
508.92 K, 3330 kPa	0.07069
508.92 K, 3340 kPa	0.07069
508.92 K, 3350 kPa	0.0707
508.92 K, 3355 kPa	0.07041
508.92 K, 3360 kPa	0.07041
508.92 K, 3365 kPa	0.07041
508.92 K, 3370 kPa	0.07041
508.92 K, 3375 kPa	0.07041
508.92 K, 3380 kPa	0.07041
508.92 K, 3385 kPa	0.07041
508.92 K, 3390 kPa	0.07013
508.92 K, 3395 kPa	0.07013
508.92 K, 3500 kPa	0.07013
508.92 K, 3535 kPa	0.07013
508.92 K, 3540 kPa	0.07013
508.92 K, 3545 kPa	0.06984
508.92 K, 3550 kPa	0.07041
508.92 K, 3555 kPa	0.07041
508.92 K, 3560 kPa	0.07041
508.92 K, 3565 kPa	0.07041
508.92 K, 3570 kPa	0.07041
508.92 K, 3605 kPa	0.06984
508.92 K, 3670 kPa	0.06984
508.92 K, 3690 kPa	0.06984
508.92 K, 3700 kPa	0.0707
508.92 K, 3900 kPa	0.0707
508.92 K, 4000 kPa	0.0707
508.92 K, 4300 kPa	0.07129
508.92 K, 4400 kPa	0.07159
508.92 K, 4500 kPa	0.07188
508.92 K, 4600 kPa	0.07219
508.92 K, 4700 kPa	0.07219
508.92 K, 4800 kPa	0.0725
508.92 K, 4900 kPa	0.0725
508.92 K, 5000 kPa	0.0728
508.92 K, 5100 kPa	0.0728
508.92 K, 5200 kPa	0.07342
508.92 K, 5300 kPa	0.07342
508.92 K, 5400 kPa	0.07342
508.92 K, 5500 kPa	0.07373
508.92 K, 5600 kPa	0.07437
508.92 K, 5800 kPa	0.07437
508.92 K, 6000 kPa	0.07437
508.92 K, 6100 kPa	0.07437
508.92 K, 6200 kPa	0.07469
508.92 K, 6400 kPa	0.07501
508.92 K, 6500 kPa	0.07534
508.92 K, 7000 kPa	0.07634
508.92 K, 7500 kPa	0.07702
508.92 K, 8000 kPa	0.07771
508.92 K, 8500 kPa	0.07771
508.92 K, 9000 kPa	0.07828
508.92 K, 9500 kPa	0.07915
508.92 K, 10000 kPa	0.07951
509.85 K, 2686 kPa	0.04642
509.85 K, 2700 kPa	0.04668
509.85 K, 2710 kPa	0.04655
509.85 K, 2720 kPa	0.04706
509.85 K, 2730 kPa	0.0472
509.85 K, 2740 kPa	0.04733
509.85 K, 2750 kPa	0.04759
509.85 K, 2760 kPa	0.04786
509.85 K, 2770 kPa	0.04813
509.85 K, 2780 kPa	0.04827
509.85 K, 2790 kPa	0.04841
509.85 K, 2800 kPa	0.04854
509.85 K, 2805 kPa	0.04868
509.85 K, 2810 kPa	0.04882
509.85 K, 2815 kPa	0.0491
509.85 K, 2820 kPa	0.04925
509.85 K, 2825 kPa	0.04939
509.85 K, 2830 kPa	0.04953
509.85 K, 2835 kPa	0.04968
509.85 K, 2840 kPa	0.04957
509.85 K, 2845 kPa	0.04972
509.85 K, 2850 kPa	0.04986
509.85 K, 2855 kPa	0.05001
509.85 K, 2860 kPa	0.05016
509.85 K, 2865 kPa	0.05031
509.85 K, 2870 kPa	0.05046
509.85 K, 2875 kPa	0.05061
509.85 K, 2880 kPa	0.05077
509.85 K, 2885 kPa	0.05123
509.85 K, 2890 kPa	0.05123
509.85 K, 2895 kPa	0.05139
509.85 K, 2900 kPa	0.05154
509.85 K, 2905 kPa	0.0517
509.85 K, 2910 kPa	0.05186
509.85 K, 2915 kPa	0.05218
509.85 K, 2920 kPa	0.05243
509.85 K, 2925 kPa	0.05259
509.85 K, 2930 kPa	0.05293
509.85 K, 2935 kPa	0.05309
509.85 K, 2940 kPa	0.05326
509.85 K, 2945 kPa	0.05344
509.85 K, 2950 kPa	0.05378
509.85 K, 2955 kPa	0.05395
509.85 K, 2960 kPa	0.05431
